This is an account of results in ChEMBL document CHEMBL4627352, “New acrylamide-sulfisoxazole conjugates as dihydropteroate synthase inhibitors” (Bioorg Med Chem, 2020).

The subject of experiment [1] is Aspergillus fumigatus. In words: Inhibition of DHPS in Aspergillus fumigatus assessed as antifungal activity by measuring inhibition zone at 5 mg/mL incubated for 48 hrs by disk diffusion method.
The test system of experiment [2] is Syncephalastrum racemosum. In words: Inhibition of DHPS in Syncephalastrum racemosum assessed as antifungal activity by measuring inhibition zone at 5 mg/mL incubated for 48 hrs by disk diffusion method. (Agar diffusion results depend on both activity and mobility in agar.)
The test system of experiment [3] is Geotrichum candidum. Description: Inhibition of DHPS in Geotrichum candidum assessed as antifungal activity by measuring inhibition zone at 5 mg/mL incubated for 48 hrs by disk diffusion method.
Experiment [4] concerns Aspergillus fumigatus. In words: Inhibition of DHPS in Aspergillus fumigatus assessed as antifungal activity by measuring inhibition of fungal growth incubated for 48 hrs by microbroth dilution method.
In experiment [5] the test system is Syncephalastrum racemosum. Description: Inhibition of DHPS in Syncephalastrum racemosum assessed as antifungal activity by measuring inhibition of fungal growth incubated for 48 hrs by microbroth dilution method.
Experiment [6] has as its system Geotrichum candidum. In words: Inhibition of DHPS in Geotrichum candidum assessed as antifungal activity by measuring inhibition of fungal growth incubated for 48 hrs by microbroth dilution method. Background: In broth dilution the organism is exposed to a series of concentrations in liquid medium.
The subject of experiment [7] is Streptococcus pneumoniae. In words: Inhibition of DHPS in Streptococcus pneumoniae assessed as antibacterial activity by measuring inhibition zone at 5 mg/mL incubated for 24 hrs by disk diffusion method.
In experiment [8] the test system is Bacillus subtilis. Description: Inhibition of DHPS in Bacillus subtilis assessed as antibacterial activity by measuring inhibition zone at 5 mg/mL incubated for 24 hrs by disk diffusion method.
For experiment [9], the system named is Staphylococcus epidermidis. In words: Inhibition of DHPS in Staphylococcus epidermidis assessed as antibacterial activity by measuring inhibition zone at 5 mg/mL incubated for 24 hrs by disk diffusion method.
Experiment [10] deals with Escherichia coli. In words: Inhibition of DHPS in Escherichia coli assessed as antibacterial activity by measuring inhibition zone at 5 mg/mL incubated for 24 hrs by disk diffusion method.
Experiment [11] deals with Proteus vulgaris. Description: Inhibition of DHPS in Proteus vulgaris assessed as antibacterial activity by measuring inhibition zone at 5 mg/mL incubated for 24 hrs by disk diffusion method.
Experiment [12] has as its system Klebsiella pneumoniae. Description: Inhibition of DHPS in Klebsiella pneumoniae assessed as antibacterial activity by measuring inhibition zone at 5 mg/mL incubated for 24 hrs by disk diffusion method.
Experiment [13] has as its system Staphylococcus epidermidis. In words: Inhibition of DHPS in Staphylococcus epidermidis assessed as antibacterial activity by measuring inhibition of bacterial growth incubated for 24 hrs by microbroth dilution method.
Experiment [14] concerns Klebsiella pneumoniae. In words: Inhibition of DHPS in Klebsiella pneumoniae assessed as antibacterial activity by measuring inhibition of bacterial growth incubated for 24 hrs by microbroth dilution method.
The subject of experiment [15] is Escherichia coli ATCC 25922. Description: Inhibition of DHPS in Escherichia coli ATCC 25922 assessed as inhibition of bacterial growth incubated for 24 hrs in presence of folate precursor, pABA by microbroth dilution method.
Experiment [16] has as its system Escherichia coli ATCC 25922. Description: Inhibition of DHPS in Escherichia coli ATCC 25922 assessed as inhibition of bacterial growth incubated for 24 hrs in presence of folate dependent metabolite, methionine by microbroth dilution method.
Experiment [17] deals with Streptococcus pneumoniae. In words: Inhibition of DHPS in Streptococcus pneumoniae assessed as antibacterial activity by measuring inhibition of bacterial growth incubated for 24 hrs by microbroth dilution method.
The subject of experiment [18] is Bacillus subtilis. In words: Inhibition of DHPS in Bacillus subtilis assessed as antibacterial activity by measuring inhibition of bacterial growth incubated for 24 hrs by microbroth dilution method.
Experiment [19] concerns Escherichia coli. Description: Inhibition of DHPS in Escherichia coli assessed as antibacterial activity by measuring inhibition of bacterial growth incubated for 24 hrs by microbroth dilution method.

≈ marks a conversion by molar mass, not a printed value. Calls of active or inactive are those of the source. The rule behind the calls is not given here.

Regarding `C[C@@H]1[C@H](O)[C@@H](C)/C=C/C=C/C=C/C=C/C=C/C=C/C=C/[C@H](O[C@@H]2O[C@H](C)[C@@H](O)[C@H](N)[C@@H]2O)C[C@@H]2O[C@](O)(C[C@@H](O)C[C@@H](O)[C@H](O)CC[C@@H](O)C[C@@H](O)CC(=O)O[C@H]1C)C[C@H](O)[C@H]2C(=O)O`, the results for the inhibition zone (IZ) in experiment [1], in [2] and in [3] were 23.7 mm, 19.7 mm and 28.7 mm, respectively. For the same molecule, the values for the MIC in experiment [4], in experiment [5] and in experiment [6] were 0.12 µg/mL (≈ 0.13 µM), 7.81 µg/mL (≈ 8.45 µM) and 0.007 µg/mL (≈ 0.00758 µM), respectively.

For `CC(=O)OC[C@H]1O[C@@H](S/C(Nc2ccccc2)=C(\C#N)C(=O)Nc2ccc(S(=O)(=O)Nc3onc(C)c3C)cc2)[C@H](OC(C)=O)[C@@H](OC(C)=O)[C@@H]1OC(C)=O`, the inhibition zone (IZ) in experiment [7] came to 10.6 mm; in [8], 12.4 mm; in experiment [9], 18.9 mm; in experiment [10], 10.6 mm; in [11] it was 8.3 mm; in experiment [12] it was 14.2 mm. For the same molecule, the MIC in experiment [13] turned out to be 15.6 µg/mL (≈ 19.5 µM); in experiment [14], 62.5 µg/mL (≈ 78.1 µM). Also, the “inhibition zone (IZ)” value in experiment [1], in experiment [2] and in experiment [3] was “inactive” in each case. Also, the inhibition entry in experiment [15] and in experiment [16] was “inactive” in each case.

For `CS/C(Nc1ccccc1)=C(\C#N)C(=O)Nc1ccc(S(=O)(=O)Nc2onc(C)c2C)cc1`, the “inhibition zone (IZ)” value in experiment [7], in experiment [8], in experiment [9], in [10], in [11] and in experiment [12] was “inactive” throughout. Also, the “inhibition zone (IZ)” value in experiment [1], in experiment [2] and in experiment [3] was “inactive” each time. In addition, the inhibition result in [15] and in [16] was “inactive” throughout.

`CC1(C)S[C@@H]2[C@H](NC(=O)[C@H](N)c3ccccc3)C(=O)N2[C@H]1C(=O)O`: the figures for the inhibition zone (IZ) in experiment [7], in [8] and in experiment [9] were 23.8 mm, 32.4 mm and 25.4 mm, respectively. Also, the figures for the MIC in [17], in experiment [18] and in experiment [13] were 0.12 µg/mL (≈ 0.343 µM), 0.24 µg/mL (≈ 0.687 µM) and 0.06 µg/mL (≈ 0.172 µM), respectively.

`Cc1noc(NS(=O)(=O)c2ccc(NC(=O)/C(C#N)=C(/S)NC34CC5CC(CC(C5)C3)C4)cc2)c1C`: the inhibition zone (IZ) in experiment [7] was determined as 16.9 mm; in experiment [8], 17.4 mm; in [9] it was 16.2 mm; in [10], 13.3 mm; in [11], 11.7 mm; in experiment [12] it was 16.2 mm. The inhibition zone (IZ) in experiment [1] was found to be 14.9 mm; in experiment [2], 13.6 mm; in experiment [3], 14.7 mm. In addition, the MIC in experiment [17] is 31.2 µg/mL (≈ 59.2 µM); in experiment [18], 31.2 µg/mL (≈ 59.2 µM); in [13], 62.5 µg/mL (≈ 118 µM); in experiment [19] it was 62.5 µg/mL (≈ 118 µM); in experiment [14], 62.5 µg/mL (≈ 118 µM); in experiment [4], 62.5 µg/mL (≈ 118 µM). Further, in experiment [6], the MIC was found to be 125 µg/mL (≈ 237 µM). Also, the inhibition result in experiment [15] and in experiment [16] was “inactive” each time.

For the molecule `CCS/C(Nc1ccccc1)=C(\C#N)C(=O)Nc1ccc(S(=O)(=O)Nc2onc(C)c2C)cc1`, the “inhibition zone (IZ)” value in experiment [7], in [10], in experiment [11], in [12], in [1] and in experiment [2] was “inactive” each time. In addition, in experiment [3], the “inhibition zone (IZ)” value is “inactive”. Moreover, the inhibition zone (IZ) in [8] turned out to be 11.2 mm; in [9] it was 10.1 mm. Moreover, the inhibition entry in experiment [15] and in experiment [16] was “inactive” each time.

Turning to `Cc1noc(NS(=O)(=O)c2ccc(N)cc2)c1C`, the inhibition zone (IZ) in experiment [7] was determined as 19.6 mm; in [8] it was 20.8 mm; in [9], 17.5 mm; in [10], 15.2 mm; in [12], 18.2 mm; in experiment [1] it was 15.1 mm. In addition, the figures for the inhibition zone (IZ) in experiment [2] and in experiment [3] were 13.2 mm and 16.8 mm, respectively. Also, the “inhibition zone (IZ)” value in experiment [11] is “inactive”. Also, the MIC was 1.95 µg/mL (≈ 7.29 µM) in [17]; 0.98 µg/mL (≈ 3.67 µM) in [18]; 7.81 µg/mL (≈ 29.2 µM) in [13]; 62.5 µg/mL (≈ 234 µM) in [19]; 7.81 µg/mL (≈ 29.2 µM) in experiment [14]; 62.5 µg/mL (≈ 234 µM) in experiment [4]. For the same molecule, the MIC in [5] is 125 µg/mL (≈ 468 µM); in [6] it was 15.6 µg/mL (≈ 58.5 µM).

Take `C=CCN/C(SC)=C(/C#N)C(=O)Nc1ccc(S(=O)(=O)Nc2onc(C)c2C)cc1`: the “inhibition zone (IZ)” value in experiment [7], in experiment [8], in experiment [9], in [10], in experiment [11] and in experiment [12] was “inactive” throughout. In addition, the inhibition zone (IZ) in experiment [1] amounted to 12.6 mm; in experiment [2] it was 15.7 mm; in [3], 18.2 mm. For the same molecule, the figures for the MIC in experiment [5] and in experiment [6] were 62.5 µg/mL (≈ 140 µM) and 15.6 µg/mL (≈ 34.9 µM), respectively. The inhibition result in experiment [15] and in experiment [16] was “inactive” in each case.

Take `CC(=O)OC[C@H]1O[C@@H](S/C(Nc2ccccc2)=C(\C#N)C(=O)Nc2ccc(S(=O)(=O)Nc3onc(C)c3C)cc2)[C@H](OC(C)=O)[C@@H](OC(C)=O)[C@H]1OC(C)=O`: the inhibition zone (IZ) in experiment [7] was found to be 15.1 mm; in experiment [8] it was 19.8 mm; in [9], 14.2 mm; in experiment [10], 13.2 mm; in experiment [11] it was 11.2 mm; in experiment [12] it was 15.8 mm. In addition, the MIC in [17] stood at 62.5 µg/mL (≈ 78.1 µM); in [18], 1.95 µg/mL (≈ 2.44 µM); in [13] it was 125 µg/mL (≈ 156 µM); in experiment [19] it was 125 µg/mL (≈ 156 µM); in experiment [14], 62.5 µg/mL (≈ 78.1 µM). Besides, the “inhibition zone (IZ)” value in experiment [1], in [2] and in experiment [3] was “inactive” each time. For the same molecule, the inhibition entry in experiment [15] and in experiment [16] was “inactive” each time.

As to `CCS/C(NC12CC3CC(CC(C3)C1)C2)=C(\C#N)C(=O)Nc1ccc(S(=O)(=O)Nc2onc(C)c2C)cc1`, the “inhibition zone (IZ)” value in [7], in experiment [8], in [9], in [10], in [11] and in [12] was “inactive” each time. Besides, the “inhibition zone (IZ)” value in [1], in [2] and in experiment [3] was “inactive” in each case. Moreover, the inhibition result in [15] and in [16] was “inactive” each time.

For the molecule `Cc1noc(NS(=O)(=O)c2ccc(NC(=O)c3c(N)n[nH]c3Nc3ccccc3)cc2)c1C`, the “inhibition zone (IZ)” value in experiment [7], in experiment [10], in experiment [11], in experiment [12], in [1] and in experiment [2] was “inactive” each time. In experiment [3], the “inhibition zone (IZ)” value was “inactive”. Further, the inhibition zone (IZ) in experiment [8] stood at 12.6 mm; in experiment [9], 13.4 mm. For the same molecule, in [13], the MIC amounted to 15.6 µg/mL (≈ 33.4 µM). Also, the inhibition entry in [15] and in experiment [16] was “inactive” in each case.

Consider `CN/C(SC)=C(/C#N)C(=O)Nc1ccc(S(=O)(=O)Nc2onc(C)c2C)cc1`, for which the “inhibition zone (IZ)” value in [7], in experiment [8], in [9], in [10], in experiment [11] and in experiment [12] was “inactive” in each case. In addition, the “inhibition zone (IZ)” value in [1], in [2] and in experiment [3] was “inactive” each time. The inhibition result in experiment [15] and in [16] was “inactive” each time.
